Laboratory results as given in patent US7220753B2, “2,7-substituted octahydro-1H-pyrido[1,2-a]pyrazine derivatives as ligands for serotonin receptors” (Pfizer Inc., priority 1994, dated 2007).
Structures can show the parent of a compound that is named as a salt.

Compared with O=c1oc2ccccc2n1C[C@@H]1CC[C@H]2CN(c3ccc(Cl)cn3)CCN2C1 [Example 39, 3-[(7R,9aS)-2-(5-Chloropyridin-2-yl)-2,3,4,6,7,8,9,9a-octahydro-1H-pyrido[1,2-a]-pyrazin-7-ylmethyl]-3H-benzoxazol-2-one], Clc1ccc(N2CCN3C[C@H](COc4ccccc4)CC[C@H]3C2)nc1 (racemic) [Example 17, (7RS,9aSR)-7-Phenoxymethyl-2-(5-chloropyridin-2-yl)-2,3,4,6,7,8,9,9a-octahydro-1H-pyrido[1,2-a]pyrazine] is lower in melting point: 247 to 248 °C for the first, 218 to 224 °C for the second.

Compared with CSc1nc(N2CCN3CC(COc4ccc(F)cc4)CCC3C2)ncc1F (stereo not drawn) [Example 6, (7RS,9aSR)-7-(4-Fluorophenoxy)methyl-2-(5-fluoro-4-thiomethyl-pyrimidin-2-yl)-2,3,4,6,7,8,9,9a-octahydro-1H-pyrido[1,2-a]pyrazine], CSc1nc(N2CCN3CC(COc4ccccc4)CCC3C2)ncc1F (stereo not drawn) [Example 4, (7RS,9aSR)-7-Phenoxymethyl-2-(5-fluoro-4-thiomethylpyrimidin-2-yl)-2,3,4,6,7,8,9,9a-octahydro-1H-pyrido[1,2-a]pyrazine] is lower in melting point: 201 to 210 °C for the first, 192 to 198 °C for the second.

First: Fc1ccc(SC[C@@H]2CCC3CN(c4ncccn4)CCN3C2)cc1 (some centres unmarked) [Example 41]
Second: O=S(=O)(C[C@@H]1CCC2CN(c3ncccn3)CCN2C1)c1ccc(F)cc1 (stereo partly drawn) [Example 42, (7RS,9aSR)-7-(4-Fluorophenylsulfonyl)methyl-2-(pyrmidin-2-yl)-2,3,4,6,7,8,9,9a-octahydro-1H-pyrido[1,2-a]pyrazine]
The melting point of the first is lower: 99 to 101 °C for the first, 155 to 157 °C for the second.

First: Nc1cc(F)ccc1N1CCN2C[C@H](COc3ccc(F)cc3)CC[C@H]2C1 [Example 24, (7R,9aS)-7-(4-Fluorophenoxy)methyl-2-(2-amino-4-fluorophenyl)-2,3,4,6,7,8,9,9a-octahydro-1H-pyrido[1,2-a]pyrazine]
Second: N#Cc1cc(F)ccc1N1CCN2C[C@H](COc3ccc(F)cc3)CC[C@H]2C1 (racemic) [Example 23, (7RS,9aSR)-7-(4-Fluorophenoxy)methyl-2-(2-cyano-4-fluorophenyl)-2,3,4,6,7,8,9,9a-octahydro-1H-pyrido[1,2-a]pyrazine]
The melting point of the first is lower: 144 to 149 °C for the first, 235 to 240 °C for the second.

Compared with Fc1ccc(OC[C@@H]2CC[C@H]3CN(c4cccnn4)CCN3C2)cc1 (racemic) (as salt: sulfate) [Example 35, (7RS,9aSR)-7-(4-Fluorophenoxy)methyl-2-(pyridazin-3-yl)-2,3,4,6,7,8,9,9a-octahydro-1H-pyrido[1,2-a]pyrazine], Fc1ccc(OC[C@@H]2CC[C@H]3CN(c4ccccn4)CCN3C2)cc1 [Example 18, (7R,9aS)-7-(4-Fluorophenoxy)methyl-2-(pyridin-2-yl)-2,3,4,6,7,8,9,9a-octahydro-1H-pyrido[1,2-a]pyrazine] is higher in melting point: 246 to 250 °C for the first, 261 to 263 °C for the second.

First: c1ccc(O[C@@H]2CC[C@H]3CN(c4ncccn4)CCN3C2)cc1 (racemic)
Second: c1ccc(OC[C@@H]2CC[C@H]3CN(c4cnccn4)CCN3C2)cc1 (racemic) [Example 30, (7RS,9aSR)-7-Phenoxymethyl-2-(pyrazin-2-yl)-2,3,4,6,7,8,9,9a-octahydro-1H-pyrido[1,2-a]pyrazine]
The melting point of the first is lower: 147 to 148 °C for the first, 217 to 219 °C for the second.

First: Fc1ccc2c(ccn2C[C@@H]2CC[C@H]3CN(c4ncccn4)CCN3C2)c1 (racemic) [Example 40, (7RS,9aSR)-7-(5-Fluoroindol-1-ylmethyl)-2-(pyrimidin-2-yl)-2,3,4,6,7,8,9,9a-octahydro-1H-pyrido[1,2-a]pyrazine]
Second: Fc1cnc(N2CCN3C[C@H](Cn4ccc5cc(F)ccc54)CC[C@H]3C2)nc1 [Example 43, (7R,9aS)-7-(5-Fluoroindol-1-yl)methyl-2-(5-fluoropyrimidin-2-yl)-2,3,4,6,7,8,9,9a-octahydro-1H-pyrido[1,2-a]pyrazine]
The melting point of the first is lower: 70 to 72 °C for the first, 180 to 182 °C for the second.

First: Fc1cnc(N2CCN3C[C@H](CCc4ccccc4)CC[C@H]3C2)nc1 [Example 12, (7R,9aS)-7-(2-Phenyl)ethyl-2-(5-fluoropyrimidin-2-yl)-2,3,4,6,7,8,9,9a-octahydro-1H-pyrido[1,2-a]pyrazine]
Second: Fc1cnc(N2CCN3C[C@H](COc4ccccc4)CC[C@H]3C2)nc1 (racemic) [Example 5, (7RS,9aSR)-7-Phenoxymethyl-2-(5-fluoropyrimidin-2-yl)-2,3,4,6,7,8,9,9a-octahydro-1H-pyrido[1,2-a]pyrazine]
The melting point of the first is higher: 250 to 252 °C for the first, 215 to 217 °C for the second.

Compared with Fc1ccc(OC[C@@H]2CC[C@H]3CN(c4ncc(Cl)cc4Cl)CCN3C2)cc1 (racemic) [Example 15, (7RS,9aSR)-7-(4-Fluorophenoxy)methyl-2-(3,5-dichloropyridin-2-yl)-2,3,4,6,7,8,9,9a-octahydro-1H-pyrido[1,2-a]pyrazine], Fc1ccc(OC[C@@H]2CC[C@H]3CN(c4ccc(F)cn4)CCN3C2)cc1 (racemic) [Example 28, (7RS,9aSR)-7-(4-Fluorophenoxy)methyl-2,3,4,6,7,8,9,9a-octahydro-2-(5-fluoropyridin-2-yl)-1H-pyrido[1,2-a]pyrazine] is lower in melting point: 247 to 248 °C for the first, 214 to 215 °C for the second.

Compared with O=C1Cc2ccccc2N1C[C@@H]1CC[C@H]2CN(c3ncccn3)CCN2C1 [Example 44, 1-[(7R,9aS)-2-(Pyrimidin-2-yl)-2,3,4,6,7,8,9,9a-octahydro-1H-pyrido[1,2-a]pyrazin-7-ylmethyl]-1,3-dihydro-indol-2-one], Fc1ccc(OC[C@@H]2CCC3CN(c4ccccc4)CCN3C2)cc1 (some centres unmarked) [Example 26] is higher in melting point: 174 to 176 °C for the first, 247 to 252 °C for the second.

Compared with COc1cccc(N2CCN3C[C@H](COc4ccc(F)cc4)CCC3C2)n1 (stereo partly drawn) [Example 27, (7RS,9aSR)-7-(4-Fluorophenoxy)methyl-2-(6-methoxypyridin-2-yl)-2,3,4,6,7,8,9,9a octahydro-1H-pyrido[1,2-a]pyrazine], Fc1ccc(OC[C@@H]2CC[C@H]3CN(c4ccc(Cl)nn4)CCN3C2)cc1 [Example 20, (7R,9aS)-7-(4-Fluorophenoxy)methyl-2-(6-chloropyridazin-3-yl)-2,3,4,6,7,8,9,9a-octahydro-1H-pyrido[1,2-a]pyrazine] is higher in melting point: 228 to 230 °C for the first, 265 to 270 °C for the second.

For Clc1ccc(N2CCN3C[C@H](COc4ccccc4)CC[C@H]3C2)nn1 (racemic) [Example 33, (7RS,9aSR)-7-Phenoxymethyl-2-(6-chloropyridazin-3-yl)-2,3,4,6,7,8,9,9a-octahydro-1H-pyrido[1,2-a]pyrazine], the melting point was > 265 °C (dec.).
With Clc1nccc(N2CCN3C[C@H](COc4ccccc4)CC[C@H]3C2)n1 (racemic) [Example 29, (7RS,9aSR)-7-Phenoxymethyl-2-(2-chloropyrimidin-4-yl)-2,3,4,6,7,8,9,9a-octahydro-1H-pyrido[1,2-a]pyrazine] the melting point was 227 to 233 °C (dec.).
With c1ccc(OC[C@@H]2CC[C@H]3CN(c4ccncn4)CCN3C2)cc1 (racemic) the melting point was > 265 °C (dec.).
For Clc1cncc(N2CCN3C[C@H](COc4ccccc4)CC[C@H]3C2)n1 (racemic) [Example 31, (7RS,9aSR)-7-Phenoxymethyl-2-(6-chloropyrazin-2-yl)-2,3,4,6,7,8,9,9a-octahydro-1H-pyrido[1,2-a]pyrazine], the melting point was 247 °C (dec.).
